For one test, the system named is Hep G2. The experiment in a line: MTT antiproliferative assay on Hep G2 cells. The class given is cell-based. Conditions: Homo sapiens, HepG2, 72 h. From the text:
(§1) MTT was purchased from DUCHEFA Biochemie ([…]). Sunitinib, and sodium dodecyl sulfate, bovine serum albuminwere obtained from Sigma Aldrich (Singapore). Sorafenib was purchase from Ontario Chem. Fetal bovine serum (FBS) was obtained from Invitrogen. Human hepatocellular carcinoma cells (HuH-7 and Hep G2), and human diploid fibroblast strain (IMR 90). HuH7 was obtained as gifts from Dr Ho Han Kiat, Department of Pharmacy, NUS. IMR90 and Hep G2 were purchased from American Type Culture Collection (ATCC). HuH-7 cells were cultured in DMEM (Dulbecco's Modified Eagle Medium, high glucose) with 10% v/v fetal bovine serum (FBS), 100 mg/L penicillin G and 100 mg/L streptomycin. IMR 90 cell were cultured in EMEM (Eagle's Minimum Essential Medium), with 10% v/v FBS and 100 mg/L penicillin G and 100 mg/L streptomycin. The cells were sub-cultured when HuH7 or Hep G2 reached a density of 70-80×10^5 cell/T75 flask, and IMR 90 reached 20×10^5 cell/T75 flask. Cells were used within 2-10 passages for viability experiments.
(§2) The anti-proliferative activity of the test compounds were determined by the MTT assay. An aliquot (200 μL, 3×10^4 cells/mL for HuH7, 3.75×10^4 cells/mL for Hep G2, and 2×10^4 cells/mL for IMR 90) of medium was added to each well of the microtitre plate. […] The existing medium was removed from each well and replaced by fresh medium (200 μL) containing a known concentration of test compound. The final concentration of DMSO in each well was maintained at 0.5% v/v. (1% v/v was also utilized if the compounds were not soluble) The test compounds were incubated with the cells for another 72 h at 37 deg C., 5% CO2. The medium was then removed from the well and replaced with FBS free medium (200 μL) and MTT (50 μL of 2 mg/mL solution in phosphate buffer saline, pH 7.4). The phosphate buffer saline comprises 10 mM of potassium phosphate and 137 mM sodium chloride. After incubation (3 h) at 37 deg C., 5% CO2, the supernatant was removed and a solution of 200 μL DMSO and 25 μL Sorenson buffer (0.1 M glycine, 0.1 M sodium chloride, adjusted to pH 10.5 with 0.1 M sodium hydroxide) was added to dissolve the formazan crystals in each well. Vehicle control were cells grown in 1% v/v DMSO/Medium for 72 h, 37 deg C., 5% CO2 while blank controls were wells that contained only 200 μL DMSO and 25 μL Sorenson buffer. Absorbances were measured at 570 nm on a microplate reader (Tecan, Infinite 200). The viability of cells at a given concentration of test compound was determined from the expression:
(§3) [formula] where abs_compound=absorbance of wells containing cells and test compound, abs_vehicle (Not the same as above. Change to abs_vehicle)=absorbance of vehicle control and abs_blank=absorbance of blank control.
(§4) Each concentration of test compound was evaluated at least 3 times on separate occasions, and two different stock solution were used. The IC50 value (concentration that inhibited 50% of cell growth) was determined from the sigmoidal curve obtained by plotting percentage viability versus logarithmic concentration of test compound using GraphPad Prism 5 (San Diego, USA).

Another test deals with HuH7 cells. Kind of test: MTT antiproliferative (growth inhibition) assay on HuH7 cells. It counts as cell-based, human. The settings on record: for IC50: Homo sapiens, Huh-7, MTT.
Excerpt: as §1, §2, §3, §4

The next test relates to IMR 90. Kind of test: MTT antiproliferative assay on non-malignant IMR 90 fibroblasts. It counts as cell-based. The settings on record: non-malignant human lung fibroblast IMR 90, MTT, 72 h.
Excerpt: as §1, §2, §3, §4

Where [1] appears, read: 72 h (Table 9), read-out: IC50 (μM) HuH7.
Setting [2] is: 72 h incubation, mean and SD of 3 or more independent determinations (Tables 1-8), read-out: IC 50.

Structures are written as SMILES. Like-named read-outs stand apart in the source and are kept apart here.

Consider `CNS(=O)(=O)c1ccc(/C=C2/C(=O)Nc3cc(Cl)ccc32)cc1` [Compound 1-21, (E)-4-(6-Chloro-2-oxo-1,2-dihydro-indol-3-ylidenemethyl)-N-methyl-benzenesulfonamide], for which the IC50 is more than 30 µM in the test with Hep G2, 15.3 ± 0.6 µM in the test on HuH7 cells (setting [1]) and 15.3 ± 0.6 µM in the test with HuH7 cells (setting [2]).
Turning to `CCNS(=O)(=O)c1cccc(/C=C2/C(=O)Nc3cc(Cl)ccc32)c1` [Compound 1-22, (E)-3-(6-Chloro-2-oxo-1,2-dihydro-indol-3-ylidenemethyl)-N-ethyl-benzenesulfonamide], the figures for the IC50 in the test on Hep G2, in the test with HuH7 cells (setting [1]) and in the test with HuH7 cells (setting [2]) were 3.96 ± 0.55 µM, 0.84 ± 0.09 µM and 0.84 ± 0.09 µM, respectively.
In the case of `CCCNS(=O)(=O)c1cccc(C=C2C(=O)Nc3cc(Cl)ccc32)c1` [Compound 1-23, E/Z-3-(6-Chloro-2-oxo-1,2-dihydro-indol-3-ylidenemethyl)-N-propyl-benzenesulfonamide], the IC50 was 1.51 ± 0.11 µM in the test on Hep G2, 0.36 ± 0.04 µM with HuH7 cells (setting [1]) and 0.36 ± 0.04 µM with HuH7 cells (setting [2]).
On to `CC(C)NS(=O)(=O)c1cccc(C=C2C(=O)Nc3cc(Cl)ccc32)c1` [Compound 1-24, E/Z 3-(6-Chloro-2-oxo-1,2-dihydro-indol-3-ylidenemethyl)-N-isopropyl-benzenesulfonamide], for which the IC50 stood at 5.46 ± 0.95 µM in the test with Hep G2, 1.93 ± 0.34 µM with HuH7 cells (setting [1]) and 1.93 ± 0.34 µM in the test on HuH7 cells (setting [2]).
For `O=C1Nc2ccc(Cl)cc2/C1=C\c1cccc(C(F)(F)F)c1` [Compound 2-7, (E)-5-Chloro-3-(3-(trifluoromethyl)benzylidene)-1,3-dihydro-indol-2-one, reference compound], the IC50 turned out to be 1.5 ± 0.06 µM with Hep G2, 0.81 ± 0.11 µM in the test on HuH7 cells (setting [1]), 0.81 ± 0.11 µM in the test with HuH7 cells (setting [2]) and 9.13 ± 1.12 µM in the test on IMR 90.
On to `O=C1Nc2cc(F)ccc2/C1=C\c1ccccc1F` [Compound 3-2, (E)-6-Fluoro-3-(2-fluoro-benzylidene)-1,3-dihydro-indol-2-one], for which the IC50 with Hep G2 was determined as 1.82 ± 0.63 µM; in the test with HuH7 cells (setting [1]) it was 0.91 ± 0.15 µM; in the test with HuH7 cells (setting [2]), 0.91 ± 0.15 µM; in the test on IMR 90 it was 2.06 ± 0.33 µM.
As to `CCNS(=O)(=O)c1cccc(/C=C2/C(=O)Nc3cc(F)ccc32)c1` [Compound 3-11, (E)-3-(6-Fluoro-2-oxo-1,2-dihydro-indol-3-ylidenemethyl)-N-ethyl-benzenesulfonamide], the values for the IC50 in the test with Hep G2, with HuH7 cells (setting [1]) and in the test on HuH7 cells (setting [2]) were 1.61 ± 0.16 µM, 0.39 ± 0.07 µM and 0.39 ± 0.07 µM, respectively.
Regarding `CCCNS(=O)(=O)c1cccc(C=C2C(=O)Nc3cc(F)ccc32)c1` [Compound 3-12, E/Z-3-(6-Fluoro-2-oxo-1,2-dihydro-indol-3-ylidenemethyl)-N-propyl-benzenesulfonamide], the figures for the IC50 in the test on Hep G2, with HuH7 cells (setting [1]) and in the test with HuH7 cells (setting [2]) were 0.72 ± 0.12 µM, 0.12 ± 0.01 µM and 0.12 ± 0.01 µM, respectively. Moreover, the “potency relative to 1-10 on HuH7” value in the test with HuH7 cells (compared with 1-10 (original lead)) stood at 4 ×.
For `CC(C)NS(=O)(=O)c1cccc(/C=C2/C(=O)Nc3cc(F)ccc32)c1` [Compound 3-13, (E)-3-(6-Fluoro-2-oxo-1,2-dihydro-indol-3-ylidenemethyl)-N-isopropyl-benzenesulfonamide], the IC50 stood at 4.22 ± 0.48 µM with Hep G2, 2.29 ± 0.06 µM in the test on HuH7 cells (setting [1]) and 2.29 ± 0.06 µM in the test on HuH7 cells (setting [2]).
In the case of `CNS(=O)(=O)c1cccc(/C=C2/C(=O)Nc3ccc(F)cc32)c1` [Compound 4-16, (E)-3-(5-Fluoro-2-oxo-1,2-dihydro-indol-3-ylidenemethyl)-N-methyl-benzenesulphonamide], the IC50 in the test on Hep G2 was 9.11 ± 0.32 µM; with HuH7 cells (setting [1]), 1.18 ± 0.02 µM; with HuH7 cells (setting [2]), 1.18 ± 0.02 µM; in the test on IMR 90, 9.92 ± 0.57 µM.
On to `O=C1Nc2cc(F)c(F)cc2/C1=C\c1cccc(C(F)(F)F)c1` [Compound 7-6, (E)-5,6-Difluoro-3-(3-trifluoromethyl-benzylidene)-1,3-dihydro-indol-2-one], for which the IC50 worked out at 0.69 ± 0.02 µM in the test on Hep G2, 0.82 ± 0.2 µM in the test with HuH7 cells (setting [1]), 0.82 ± 0.2 µM in the test on HuH7 cells (setting [2]) and 8.53 ± 0.6 µM with IMR 90.
On to `O=C1Nc2cc(F)c(F)cc2/C1=C\c1ccc(C(F)(F)F)cc1` [Compound 7-7, (E)-5,6-Difluoro-3-(4-(trifluoromethyl)benzylidene)-1,3-dihydro-indol-2-one], for which, in the test on HuH7 cells (setting [2]), the IC50 was 10.6 ± 0.68 µM.
On the same count and under the same terms, the value for `O=C1Nc2cc(F)c(F)cc2/C1=C\c1cccc(OC(F)(F)F)c1` [Compound 7-8, (E)-5,6-Difluoro-3-(3-trifluoromethoxyl-benzylidene)-1,3-dihydro-indol-2-one] was 5.61 ± 0.26 µM.
On the same count and under the same terms, the value for `CS(=O)(=O)c1cccc(/C=C2/C(=O)Nc3cc(F)c(F)cc32)c1` [Compound 7-9, (E)-5,6-Difluoro-3-(3-methanesulfonylbenzylidene)-1,3-dihydro-indol-2-one] was 13.9 ± 2.03 µM; that for `CNS(=O)(=O)c1cccc(C=C2C(=O)Nc3cc(F)c(F)cc32)c1` [Compound 7-10] was 2.76 ± 0.16 µM; that for `O=C1Nc2ccccc2/C1=C\c1cccc(C(F)(F)F)c1` [Compound 8-1, (E) 3-(3-Trifluoromethyl-benzylidene)-1,3-dihydro-indol-2-one] was 5.56 ± 0.06 µM.
Regarding `O=C1Nc2ccccc2C1=Nc1cccc(C(F)(F)F)c1` [Compound 8-2, (E/Z) 3-(3-Trifluoromethyl-phenylimino)-1,3-dihydro-indol-2-one], in the test on HuH7 cells (setting [2]), the IC50 is more than 30 µM.
Still for that read-out and setting: the value for `CN1C(=O)/C(=C/c2cccc(C(F)(F)F)c2)c2ccccc21` [Compound 8-3, (E)-1-Methyl-3-(3-trifluoromethyl-benzylidene)-1,3-dihydro-indol-2-one] was 6.74 ± 1.23 µM; that for `O=C1Nc2cc(Cl)ccc2C1=Nc1cccc(C(F)(F)F)c1` [Compound 8-4, (E/Z) 6-Chloro-3-(3-trifluoromethyl-phenylimino)-1,3-dihydro-indol-2-one] was 20.1 ± 1.72 µM.
Still for that read-out and setting: the same measure for `CN1C(=O)/C(=C/c2cccc(C(F)(F)F)c2)c2ccc(Cl)cc21` [Compound 8-5, (E)-6-Chloro-1-methyl-3-(3-trifluoromethyl-benzylidene)-1,3-dihydro-indol-2-one]: 1.14 ± 0.19 µM; for `O=C1Nc2ccc(Cl)cc2C1=Nc1cccc(C(F)(F)F)c1` [Compound 8-6, (E/Z) 5-Chloro-3-(3-trifluoromethyl-phenylimino)-1,3-dihydro-indol-2-one]: 20.3 ± 3.53 µM; for `O=C1Nc2ccc(F)cc2C1=Nc1cccc(C(F)(F)F)c1` [Compound 8-7, (E/Z)-5-Fluoro-3-(3-trifluoromethyl-phenylimino)-1,3-dihydro-indol-2-one]: 23.13 ± 0.21 µM.
In the case of `CNC(=O)c1cc(Oc2ccc(NC(=O)Nc3ccc(Cl)c(C(F)(F)F)c3)cc2)ccn1` [Sorafenib, reference compound], the IC50 in the test on Hep G2 is 5.6 ± 0.21 µM; with HuH7 cells (setting [1]) it was 5.35 ± 0.49 µM; with IMR 90, 11 ± 1.72 µM.
As for `CCN(CC)CCNC(=O)c1c(C)[nH]c(/C=C2\C(=O)Nc3ccc(F)cc32)c1C` [sunitinib, reference compound], the figures for the IC50 in the test on Hep G2, in the test with HuH7 cells (setting [1]) and with IMR 90 were 5.07 ± 0.07 µM, 5.6 ± 0.12 µM and 6.32 ± 1.24 µM, respectively.

These data come from US8877946B2, “Benzylidene-indolinone compounds and their medical use” (National University of Singapore, priority 2011, dated 2014).
